Here are results for nine compounds from PubChem BioAssay (NCI).

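Protocol summary: plate cells (96-well), add compound at 5 concentrations, incubate 48 h, interpolate endpoints linearly. GI50: concentration for 50% inhibition of growth. TGI denotes the concentration required for complete inhibition of growth.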

Among the test systems are OVCAR-3 ovarian; U251 CNS; HS 578T breast; A549 NSCLC; SK-OV-3 ovarian; LOX IMVI melanoma; OVCAR-8 ovarian; CAKI-1 renal; SN12C renal; UACC-257 melanoma.
Test in all cases: NCI-60 cell line screen, 48 h

Regarding `O=C(Cn1c(C(=O)c2ccc(Cl)cc2)nc(-c2ccccc2)c1-c1ccccc1)c1ccc(Cl)cc1`, the GI50 in the test on OVCAR-3 ovarian, in the test with U251 CNS, with HS 578T breast, with A549 NSCLC, in the test with SK-OV-3 ovarian and in the test with LOX IMVI melanoma was above 100 µM each time. For the same compound, the GI50 in the test on OVCAR-8 ovarian, with CAKI-1 renal, in the test with SN12C renal and in the test with UACC-257 melanoma was above 100 µM in each case. Besides, the TGI in the test on OVCAR-3 ovarian, in the test with U251 CNS, in the test on HS 578T breast, in the test on A549 NSCLC, in the test with SK-OV-3 ovarian and in the test on LOX IMVI melanoma was above 100 µM in each case. Also, the TGI with OVCAR-8 ovarian, with CAKI-1 renal, in the test on SN12C renal and with UACC-257 melanoma was above 100 µM throughout.

Regarding `CN(C)CC1CCCCCC(Br)C1=O` (stereo not given), the TGI in the test on OVCAR-3 ovarian was 21.6 µM; in the test on U251 CNS, 43 µM; in the test on HS 578T breast, 61.5 µM; with A549 NSCLC, above 100 µM; in the test with SK-OV-3 ovarian, above 100 µM; with LOX IMVI melanoma, 29.8 µM. The TGI came out at 32.8 µM in the test on OVCAR-8 ovarian, 16 µM with CAKI-1 renal, 32.2 µM with SN12C renal and 23 µM in the test on UACC-257 melanoma.

For the compound `O=C(Oc1ccccc1Cl)c1ccccc1Nc1cccc(C(F)(F)F)c1`, the GI50 in the test on OVCAR-3 ovarian is 15.4 µM; in the test with U251 CNS it was 23.6 µM; in the test with HS 578T breast it was 26.1 µM; with A549 NSCLC, 36 µM; in the test on SK-OV-3 ovarian, 47.5 µM; in the test on LOX IMVI melanoma, 11.9 µM. In addition, the GI50 was 32 µM with OVCAR-8 ovarian, 20.7 µM with CAKI-1 renal, 23.4 µM in the test with SN12C renal and 26.4 µM in the test with UACC-257 melanoma. In addition, the TGI with OVCAR-3 ovarian was 32.9 µM; in the test on U251 CNS, 58.2 µM; in the test with HS 578T breast it was 67.1 µM; with A549 NSCLC, above 100 µM; in the test with SK-OV-3 ovarian it was above 100 µM; with LOX IMVI melanoma it was 33.5 µM. Also, the TGI is above 100 µM in the test with OVCAR-8 ovarian, 49 µM in the test with CAKI-1 renal, above 100 µM in the test with SN12C renal and 76 µM in the test on UACC-257 melanoma.

Take `OCCn1cc(-c2cnc3nnn(Cc4ccc5ncccc5c4)c3n2)cn1`: the GI50 in the test on OVCAR-3 ovarian, in the test with U251 CNS, in the test with HS 578T breast, in the test with A549 NSCLC, in the test with SK-OV-3 ovarian and in the test on LOX IMVI melanoma was above 100 µM in each case. Moreover, the GI50 with OVCAR-8 ovarian, in the test with CAKI-1 renal, in the test with SN12C renal and in the test with UACC-257 melanoma was above 100 µM in each case. The TGI with OVCAR-3 ovarian, with U251 CNS, with HS 578T breast, in the test with A549 NSCLC, with SK-OV-3 ovarian and in the test with LOX IMVI melanoma was above 100 µM throughout. Also, the TGI in the test on OVCAR-8 ovarian, in the test with CAKI-1 renal, with SN12C renal and with UACC-257 melanoma was above 100 µM each time.

`O=c1c2c(=NCCN3CCCC3)cc3c(=O)n(CCCN4CCOCC4)c(=O)c4ccc(c(O)n1CCCN1CCOCC1)c2c4-3`: the GI50 with OVCAR-3 ovarian is 0.0994 µM; in the test on U251 CNS, 0.11 µM; in the test with HS 578T breast, 1.18 µM; with A549 NSCLC, 0.0441 µM; in the test on SK-OV-3 ovarian, 0.381 µM; in the test on LOX IMVI melanoma it was 0.192 µM. In addition, the GI50 in the test on OVCAR-8 ovarian was 0.1 µM; in the test with CAKI-1 renal, 0.218 µM; in the test with SN12C renal it was 0.138 µM; with UACC-257 melanoma, 0.707 µM. Further, the TGI was 1 µM in the test with OVCAR-3 ovarian; 1.95 µM in the test on U251 CNS; 5.24 µM in the test on HS 578T breast; 3.44 µM in the test on A549 NSCLC; 2.15 µM in the test on SK-OV-3 ovarian; 0.443 µM in the test with LOX IMVI melanoma. For the same compound, the TGI is above 32.8 µM in the test on OVCAR-8 ovarian, 1.41 µM in the test with CAKI-1 renal, 4.54 µM with SN12C renal and 3.76 µM in the test on UACC-257 melanoma.

Take `O=C1/C(=C/c2ccc(Cl)cc2)CCC1CN1CCOCC1` (stereo not given): the TGI with OVCAR-3 ovarian is 15 µM; in the test with U251 CNS, 40.2 µM; with HS 578T breast it was above 100 µM; with A549 NSCLC, 55.9 µM; in the test with SK-OV-3 ovarian it was 31.9 µM; with LOX IMVI melanoma, 5.24 µM. Besides, the TGI in the test with OVCAR-8 ovarian was 17.2 µM; with CAKI-1 renal it was 9.46 µM; in the test with SN12C renal it was 8.9 µM; in the test with UACC-257 melanoma it was 21.8 µM.

Take `CC(C)=CC(=O)N[C@@H]1CC2CCC3C(CC[C@@]4(C)C3CC[C@@H]4C(C)N(C)C)[C@@]2(C)C[C@@H]1O` (stereo not given in full): the GI50 is 5.14 µM in the test on OVCAR-3 ovarian; 3.97 µM with U251 CNS; 6.12 µM with HS 578T breast; 7.27 µM in the test on A549 NSCLC; 10.4 µM in the test with SK-OV-3 ovarian; 1.54 µM with LOX IMVI melanoma. Also, the GI50 was 12.8 µM in the test with OVCAR-8 ovarian, 5.96 µM with CAKI-1 renal, 9.11 µM in the test with SN12C renal and 3.53 µM in the test with UACC-257 melanoma. The TGI in the test on OVCAR-3 ovarian was 21.9 µM; in the test with U251 CNS, 22 µM; with HS 578T breast it was 25.3 µM; in the test with A549 NSCLC it was 33.8 µM; with SK-OV-3 ovarian, 24.6 µM; in the test on LOX IMVI melanoma, 3.97 µM. Moreover, the TGI was above 53.2 µM with OVCAR-8 ovarian, 23.9 µM in the test on CAKI-1 renal, above 44.5 µM with SN12C renal and 11.2 µM with UACC-257 melanoma.

Regarding `CCOc1cc2c(=O)oc3c(OC)ccc4ccc(c1OC)c2c43`, the TGI in the test on OVCAR-3 ovarian, in the test on U251 CNS, with HS 578T breast, in the test on A549 NSCLC, with SK-OV-3 ovarian and with LOX IMVI melanoma was above 100 µM each time. In addition, the TGI was 79.3 µM in the test with OVCAR-8 ovarian, above 100 µM in the test on CAKI-1 renal, above 100 µM in the test on SN12C renal and above 100 µM with UACC-257 melanoma.

For the compound `CCCCCCCCCCCC1=NC(C)(C)CN1CC(C)O` (stereo not given), the GI50 in the test with OVCAR-3 ovarian is 3.35 µM; in the test on U251 CNS, 3.3 µM; in the test with HS 578T breast, 2.6 µM; in the test on A549 NSCLC, 6.83 µM; with SK-OV-3 ovarian it was 12.4 µM; with LOX IMVI melanoma, 1.85 µM. The GI50 was 8.89 µM in the test with OVCAR-8 ovarian, 2.97 µM in the test with CAKI-1 renal, 7.26 µM with SN12C renal and 2.81 µM in the test on UACC-257 melanoma. Also, the TGI in the test with OVCAR-3 ovarian worked out at 12.7 µM; in the test on U251 CNS, 12 µM; in the test on HS 578T breast, 17.3 µM; in the test with A549 NSCLC, 22.6 µM; in the test on SK-OV-3 ovarian it was 24.8 µM; in the test on LOX IMVI melanoma, 4.42 µM. For the same compound, the TGI in the test on OVCAR-8 ovarian was 25 µM; in the test on CAKI-1 renal it was 12.2 µM; with SN12C renal, 20.3 µM; with UACC-257 melanoma it was 7.49 µM.
